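Assay format: 96-well plates, 48-hour exposure. Definition used: TGI = concentration required for complete inhibition of growth.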
Assays:
Assay in all cases: NCI tumour cell line growth inhibition, 48 h
HT29 colon = tested on: HT29 colon
HOP-62 NSCLC = tested on: HOP-62 NSCLC
HCT-116 colon = tested on: HCT-116 colon
NCI-H522 lung = tested on: NCI-H522 lung
UACC-62 melanoma = tested on: UACC-62 melanoma
PC-3 prostate = tested on: PC-3 prostate
SF-268 CNS = tested on: SF-268 CNS
NCI-H23 lung = tested on: NCI-H23 lung
K-562 leukemia = tested on: K-562 leukemia
CAKI-1 renal = tested on: CAKI-1 renal
MALME-3M melanoma = tested on: MALME-3M melanoma
U251 CNS = tested on: U251 CNS
NCI-H226 lung = tested on: NCI-H226 lung
M14 melanoma = tested on: M14 melanoma
MDA-MB-435 = tested on: MDA-MB-435
786-0 renal = tested on: 786-0 renal
OVCAR-5 ovarian = tested on: OVCAR-5 ovarian
HCT-15 colon = tested on: HCT-15 colon
RPMI-8226 leukemia = tested on: RPMI-8226 leukemia
BT-549 breast = tested on: BT-549 breast

Row | Structure (SMILES) | TGI (HT29 colon) [µM] | TGI (HOP-62 NSCLC) [µM] | TGI (HCT-116 colon) [µM] | TGI (NCI-H522 lung) [µM] | TGI (UACC-62 melanoma) [µM] | TGI (PC-3 prostate) [µM] | TGI (SF-268 CNS) [µM] | TGI (NCI-H23 lung) [µM] | TGI (K-562 leukemia) [µM] | TGI (CAKI-1 renal) [µM] | TGI (MALME-3M melanoma) [µM] | TGI (U251 CNS) [µM] | TGI (NCI-H226 lung) [µM] | TGI (M14 melanoma) [µM] | TGI (MDA-MB-435) [µM] | TGI (786-0 renal) [µM] | TGI (OVCAR-5 ovarian) [µM] | TGI (HCT-15 colon) [µM] | TGI (RPMI-8226 leukemia) [µM] | TGI (BT-549 breast) [µM]
1 | CC(=O)N(CN1C(=O)CCC1C(=O)O)c1ccc(C)cc1 (centres undefined) | > 100 | > 100 | > 100 | > 100 | > 100 | > 100 | > 100 | > 100 | > 100 | > 100 | > 100 | > 100 | > 100 | > 100 | > 100 | > 100 | > 100 | > 100 | > 100 | –
2 | Cc1ccc(N/N=C/C2=CC(C)(C)C(C#N)(C#N)C(O)=C2C#N)cc1 | > 100 | > 100 | > 100 | > 100 | > 100 | 58.7 | > 100 | > 100 | > 100 | 69.5 | > 100 | – | > 100 | > 100 | > 100 | > 100 | > 100 | – | 93.7 | –
3 | O=C1OCCC12CN(Cc1ccccc1)N=N2 (centres undefined) | > 100 | > 100 | > 100 | > 100 | > 100 | > 100 | > 100 | > 100 | > 100 | > 100 | > 100 | > 100 | – | > 100 | > 100 | > 100 | > 100 | > 100 | > 100 | –
4 | CCOP(=O)(OCC)c1cc2cc(O)ccc2oc1=O | > 100 | > 100 | > 100 | > 100 | > 100 | > 100 | > 100 | > 100 | > 100 | > 100 | – | > 100 | > 100 | > 100 | > 100 | > 100 | > 100 | > 100 | > 100 | –
5 | O=C(N/C(=C\NC1=NCCS1)C(=O)N1CSC[C@@H]1C(=O)O)c1ccccc1 | > 100 | > 100 | > 100 | – | > 100 | > 100 | > 100 | > 100 | > 100 | > 100 | – | > 100 | > 100 | > 100 | > 100 | > 100 | > 100 | > 100 | > 100 | –
6 | CC(=O)OC1COC(n2c(O)c(N=Nc3ccc([N+](=O)[O-])cc3)c3cc(Br)c([N+](=O)[O-])cc32)C(OC(C)=O)C1OC(C)=O (centres undefined) | > 100 | > 100 | > 100 | > 100 | 36.6 | – | > 100 | > 100 | > 100 | > 100 | > 100 | > 100 | > 100 | > 100 | – | > 100 | > 100 | > 100 | > 100 | –
7 | CC(=O)Oc1c(C)cc2c(c1C)C(C)(C)CN2C(=O)C(C)(C)C | > 100 | > 100 | > 100 | > 100 | > 100 | > 100 | > 100 | > 100 | > 100 | – | – | > 100 | > 100 | > 100 | > 100 | > 100 | > 100 | > 100 | > 100 | –
8 | O=C1CSC(c2c[nH]c3ccccc23)N1c1cccc([N+](=O)[O-])c1 (centres undefined) | > 100 | > 100 | > 100 | > 100 | > 100 | > 100 | > 100 | > 100 | > 100 | – | – | > 100 | – | > 100 | > 100 | > 100 | > 100 | > 100 | > 100 | > 100
9 | O=S(Nc1ccccc1)c1ccccc1Oc1ccccc1 (centres undefined) | > 100 | > 100 | > 100 | > 100 | – | > 100 | 62 | > 100 | > 100 | > 100 | > 100 | > 100 | > 100 | > 100 | > 100 | > 100 | > 100 | > 100 | > 100 | –
10 | CCOc1ccccc1NC(=O)CSc1nnc(Cc2ccccc2)o1 | > 100 | > 100 | 84.5 | 40.7 | 52.6 | – | 64.4 | 52.1 | > 100 | 37.6 | 33.8 | 41 | 57.5 | 66.5 | – | 44.8 | > 100 | 35.1 | > 100 | –
11 | Cc1cc(N(CCC#N)CCC#N)ccc1/C=C(\NC(=O)/C=C/c1ccccc1)NC(=O)Nc1ccccc1C | > 100 | – | > 100 | – | > 100 | – | > 100 | > 100 | > 100 | > 100 | > 100 | 42.7 | > 100 | > 100 | – | > 100 | > 100 | > 100 | > 100 | –
12 | CCN1C(=O)/C(=C\c2coc3ccccc3c2=O)SC1=S | > 100 | > 100 | > 100 | > 100 | > 100 | – | > 100 | > 100 | > 100 | > 100 | > 100 | > 100 | > 100 | > 100 | – | > 100 | > 100 | > 100 | > 100 | –
13 | Nc1cc(N2CCOCC2)nc(=O)n1-c1ccccc1 | > 100 | > 100 | > 100 | – | > 100 | > 100 | – | > 100 | > 100 | > 100 | – | > 100 | > 100 | > 100 | > 100 | > 100 | > 100 | > 100 | > 100 | > 100

— PubChem BioAssay (NCI)
